Data reported in patent US20250367106A1, “Topical Formulation for Improving Skin Quality and Inducing the Release of Oxytocin” (OX Technology IP LLC, priority 2024, published 2025).

Experiment: ratings of trustworthiness and attractiveness of unfamiliar faces (FIG. 3)
Format: in vivo, human
Settings: people under the influence of the hormone compared to control groups who were not
Source text: As has been explained, the first set 14 of active ingredients create a reaction in the body that induces the production of hormones and/or pheromones. Hormones, such as oxytocin and its kind promote improved social behavior and enhances positive social perceptions of others. […] Oxytocin also masks negative personality perceptions that masculinized faces tend to elicit.

With `CC[C@H](C)[C@@H]1NC(=O)[C@H](Cc2ccc(O)cc2)NC(=O)[C@@H](N)CSSC[C@@H](C(=O)N2CCC[C@H]2C(=O)N[C@@H](CC(C)C)C(=O)NCC(N)=O)NC(=O)[C@H](CC(N)=O)NC(=O)[C@H](CCC(N)=O)NC1=O` [oxytocin] the “ratings of "trustworthiness" and "attractiveness" of unfamiliar faces” value was “higher ratings”.
